In PubChem BioAssay (NCI):
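Protocol summary: plate cells (96-well), add compound at 5 concentrations, incubate 48 h, interpolate endpoints linearly. TGI: total growth inhibition.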

Legend:
Test in all cases: DTP human tumour cell line panel, 48 h
[1] = test system: SF-539 CNS
[2] = test system: MCF7 breast
[3] = test system: SNB-19 CNS
[4] = test system: HOP-92 NSCLC
[5] = test system: KM12 colon
[6] = test system: SF-295 CNS
[7] = test system: T-47D breast
[8] = test system: UACC-62 melanoma
[9] = test system: MDA-N
[10] = test system: IGROV1 ovarian
[11] = test system: MDA-MB-231 breast
[12] = test system: SN12C renal
[13] = test system: MOLT-4 leukemia
[14] = test system: DU-145 prostate
[15] = test system: PC-3 prostate
[16] = test system: NCI-H460 lung
[17] = test system: SR leukemia
[18] = test system: NCI-H226 lung
[19] = test system: UO-31 renal
[20] = test system: HCC-2998 colon

COC(=O)/C(C#N)=C(\N)c1c(C)c2ccccc2oc1=N
TGI [1]: > 100 µM
TGI [2]: > 100 µM
TGI [3]: > 100 µM
TGI [4]: > 100 µM
TGI [5]: > 100 µM
TGI [6]: > 100 µM
TGI [7]: > 100 µM
TGI [8]: > 100 µM
TGI [9]: > 100 µM
TGI [10]: > 100 µM
TGI [11]: > 100 µM
TGI [12]: > 100 µM
TGI [13]: > 100 µM
TGI [14]: > 100 µM
TGI [15]: > 100 µM
TGI [16]: > 100 µM
TGI [17]: > 100 µM

CCCNC(=O)N(C)C(=O)N1N=C(c2ccccc2)C1c1ccccc1 (configuration not stated)
TGI [1]: > 100 µM
TGI [2]: > 100 µM
TGI [3]: > 100 µM
TGI [18]: > 100 µM
TGI [4]: > 100 µM
TGI [5]: > 100 µM
TGI [6]: > 100 µM
TGI [7]: > 100 µM
TGI [8]: > 100 µM
TGI [9]: > 100 µM
TGI [10]: > 100 µM
TGI [11]: > 100 µM
TGI [12]: > 100 µM
TGI [13]: > 100 µM
TGI [14]: > 100 µM
TGI [19]: > 100 µM
TGI [15]: > 100 µM
TGI [20]: > 100 µM

CCCCOC(=O)c1cc(C(=CCC[C@H]2CC[C@@]3(C)[C@@H](CC[C@@H]4[C@@H]3CC[C@]3(C)[C@@H](C(C)CCCC(C)C)CC[C@@H]43)C2)c2cc(Cl)c(O)c(C(=O)OCCCC)c2)cc(Cl)c1O (some centres not stated)
TGI [3]: > 50 µM
TGI [18]: > 50 µM
TGI [4]: > 50 µM
TGI [5]: > 50 µM
TGI [7]: > 50 µM
TGI [8]: > 50 µM
TGI [9]: > 50 µM
TGI [10]: > 50 µM
TGI [11]: > 50 µM
TGI [12]: > 50 µM
TGI [13]: > 5 µM
TGI [14]: > 50 µM
TGI [15]: > 50 µM
TGI [16]: > 50 µM
TGI [20]: > 50 µM

Clc1c2ccccc2nc2c1[nH]c1ccccc12
TGI [1]: > 100 µM
TGI [2]: > 100 µM
TGI [3]: > 100 µM
TGI [4]: > 100 µM
TGI [5]: 22.2 µM
TGI [6]: > 100 µM
TGI [7]: > 100 µM
TGI [8]: > 100 µM
TGI [9]: 16.9 µM
TGI [10]: > 100 µM
TGI [11]: 46.7 µM
TGI [12]: > 100 µM
TGI [13]: 9.61 µM
TGI [14]: > 100 µM
TGI [19]: > 100 µM
TGI [15]: > 100 µM
TGI [16]: > 100 µM
TGI [17]: 43.6 µM
TGI [20]: > 100 µM

Cc1csc(NNC(=O)Nc2ccccc2)n1
TGI [1]: > 100 µM
TGI [2]: > 100 µM
TGI [3]: > 100 µM
TGI [18]: > 100 µM
TGI [5]: > 100 µM
TGI [6]: > 100 µM
TGI [7]: > 100 µM
TGI [8]: > 100 µM
TGI [9]: > 100 µM
TGI [10]: > 100 µM
TGI [11]: > 100 µM
TGI [12]: > 100 µM
TGI [14]: > 100 µM
TGI [19]: > 100 µM
TGI [15]: > 100 µM
TGI [16]: > 100 µM
TGI [17]: > 100 µM
TGI [20]: > 100 µM

CC1(C)OC(=O)C(Cc2ccccc2)(Cc2ccccc2)C(=O)O1
TGI [1]: > 100 µM
TGI [2]: > 100 µM
TGI [18]: > 100 µM
TGI [5]: > 100 µM
TGI [6]: > 100 µM
TGI [7]: > 100 µM
TGI [8]: > 100 µM
TGI [9]: > 100 µM
TGI [10]: > 100 µM
TGI [11]: > 100 µM
TGI [12]: > 100 µM
TGI [13]: > 100 µM
TGI [14]: > 100 µM
TGI [19]: > 100 µM
TGI [15]: > 100 µM
TGI [16]: > 100 µM
TGI [17]: > 100 µM
TGI [20]: > 100 µM

N#Cc1c(N2CCN(c3ccc([N+](=O)[O-])cc3)CC2)[n+](=O)c2ccccc2n1[O-]
TGI [1]: > 100 µM
TGI [2]: > 100 µM
TGI [3]: > 100 µM
TGI [5]: > 100 µM
TGI [6]: > 100 µM
TGI [7]: > 100 µM
TGI [8]: > 100 µM
TGI [9]: > 100 µM
TGI [10]: > 100 µM
TGI [11]: > 100 µM
TGI [12]: > 100 µM
TGI [13]: > 100 µM
TGI [14]: > 100 µM
TGI [15]: > 100 µM
TGI [16]: > 100 µM
TGI [17]: 5.69 µM
TGI [20]: > 100 µM
